From patent EP0452101B1, “Spiro bridged and unbridged heterocyclic compounds” (ISRAEL INSTITUTE FOR BIOLOGICAL RESEARCH, priority 1990, dated 1991)

What was measured:
scopolamine-treated rats = assay: Passive avoidance (PA) in scopolamine-treated rats; assay type: in vivo, Sprague-Dawley rats
Protocol: Naive male Sprague-Dawley rats, three months old (obtained from Charles River Breeding, U.K.), were used (weighing 200-300 g.). The passive avoidance (PA) test is according to Fisher et al, Neurosci. Lett. 102: 325 (1989), except that in these rats amnesia was induced by scopolamine.
Eight groups of 17-20 naive rats were used. Each group was divided into two subgroups of 7-10 rats each: subgroup 1 was injected with scopolamine HBr (0.5 mg./kg. in saline, s.c., 15 min. before the shock) and subgroup 2 was injected with saline (1 ml./kg., s.c., 15 min. before the shock). Seven of the groups were treated within one minute after the shock with one of the following doses of the tested compound: 0.1, 0.5, 1, 3, 5, 8, 10 mg./kg. (in saline, i.p.) and one group received saline (1 ml./kg., i.p.).
Eight groups of 18-20 naive rats each were used. Each group was divided into two subgroups of 9-10 rats each: subgroup 1 was injected with scopolamine HBr (0.5 mg./kg. in saline, s.c., 15 min. before the shock) and subgroup 2 was injected with saline (1 ml./kg., s.c., 15 min. before the shock). Seven of the groups were treated, within one minute after the shock, with one of the following doses of AF125(N): 0.1, 0.5, 1, 3, 5, 8 or 10 mg./kg. (in saline, i.p.) and one group received saline (1 ml./kg., i.p.).

AF64A-treated rats = assay: Morris water maze (MWM) in AF64A-treated rats; assay type: in vivo; conditions: i.p.
Protocol: This animal model, which mimics the cholinergic hypofunction and cognitive impairments in SDAT was used as described in Fisher et al (J. Pharmacol. Exptl. Therap, 1991, in the press).
Rats were injected with AF64A (3 nmole/2 µl./side, icv) or saline (2 µl., icv), in presence of phosphate buffer or AF151.

[1] = post-shock AF125 0.1 mg/kg i.p., pre-shock Saline
[2] = post-shock AF125 0.1 mg/kg i.p., pre-shock Scopolamine
[3] = post-shock AF125 0.5 mg/kg i.p., pre-shock Saline
[4] = post-shock AF125 0.5 mg/kg i.p., pre-shock Scopolamine
[5] = post-shock AF125 1.0 mg/kg i.p., pre-shock Saline
[6] = post-shock AF125 1.0 mg/kg i.p., pre-shock Scopolamine
[7] = post-shock AF125 3.0 mg/kg i.p., pre-shock Saline
[8] = post-shock AF125 3.0 mg/kg i.p., pre-shock Scopolamine
[9] = post-shock AF125 5.0 mg/kg i.p., pre-shock Saline
[10] = post-shock AF125 5.0 mg/kg i.p., pre-shock Scopolamine
[11] = post-shock AF125 8.0 mg/kg i.p., pre-shock Saline
[12] = post-shock AF125 8.0 mg/kg i.p., pre-shock Scopolamine
[13] = post-shock AF125 10.0 mg/kg i.p., pre-shock Saline
[14] = post-shock AF125 10.0 mg/kg i.p., pre-shock Scopolamine

For CC1=NCC2(CN3CCC2CC3)O1 (racemic) [AF125, 2-Methyl-spiro(1,3 oxazoline-5,3')quinuclidine], the side effects (scopolamine-treated rats; 3 mg./kg. i.p., pre-shock saline treated rats) was “slight diarrhea”, the side effects (scopolamine-treated rats; 5 mg./kg. i.p., pre-shock saline treated rats) was “stronger diarrhea” and the side effects (scopolamine-treated rats; 8 and 10 mg./kg. i.p., pre-shock saline treated rats) was “severe diarrhea with lacrimation”. The “Initial latency, Mean” value (scopolamine-treated rats; [1]) was 49.5, the “Retention latency, Mean” value (scopolamine-treated rats; [1]) was 572.8 and the “Initial latency, Mean” value (scopolamine-treated rats; [2]) was 33.6. The “Retention latency, Mean” value (scopolamine-treated rats; [2]) was 128.8, the “Initial latency, Mean” value (scopolamine-treated rats; [3]) was 42.0 and the “Retention latency, Mean” value (scopolamine-treated rats; [3]) was 600.0. For the same compound, the “Initial latency, Mean” value (scopolamine-treated rats; [4]) was 47.4, the “Retention latency, Mean” value (scopolamine-treated rats; [4]) was 222.7 and the “Initial latency, Mean” value (scopolamine-treated rats; [5]) was 36.0. The “Retention latency, Mean” value (scopolamine-treated rats; [5]) was 555.8, the “Initial latency, Mean” value (scopolamine-treated rats; [6]) was 23.3 and the “Retention latency, Mean” value (scopolamine-treated rats; [6]) was 261.2. For the same compound, the “Initial latency, Mean” value (scopolamine-treated rats; [7]) was 51.9, the “Retention latency, Mean” value (scopolamine-treated rats; [7]) was 530.4 and the “Initial latency, Mean” value (scopolamine-treated rats; [8]) was 47.3. The “Retention latency, Mean” value (scopolamine-treated rats; [8]) was 296.0, the “Initial latency, Mean” value (scopolamine-treated rats; [9]) was 34.7 and the “Retention latency, Mean” value (scopolamine-treated rats; [9]) was 426.7. For the same compound, the “Initial latency, Mean” value (scopolamine-treated rats; [10]) was 51.3, the “Retention latency, Mean” value (scopolamine-treated rats; [10]) was 227.3 and the “Initial latency, Mean” value (scopolamine-treated rats; [11]) was 41.2. The “Retention latency, Mean” value (scopolamine-treated rats; [11]) was 594.1, the “Initial latency, Mean” value (scopolamine-treated rats; [12]) was 53.9 and the “Retention latency, Mean” value (scopolamine-treated rats; [12]) was 294.9. The “Initial latency, Mean” value (scopolamine-treated rats; [13]) was 46.3, the “Retention latency, Mean” value (scopolamine-treated rats; [13]) was 498.3 and the “Initial latency, Mean” value (scopolamine-treated rats; [14]) was 45.9. For the same compound, the “Retention latency, Mean” value (scopolamine-treated rats; [14]) was 288.3 and the side effects (scopolamine-treated rats; pre-shock scopolamine treated rats) was “did not exhibit any side effects”.
With CC1=NC2(CCN(C)CC2)CO1 [AF151, 1-methylpiperidine-4-spiro-4'-(2'-methyl-1',3'-oxazoline)] the Path length (AF64A-treated rats; icv AF64A, AF151 0.07 mg./kg., Block 1) was 729.0± 98.2 cm, the Path length (AF64A-treated rats; icv AF64A, AF151 0.07 mg./kg., Block 2) was 918.1±124.3 cm and the Path length (AF64A-treated rats; icv AF64A, AF151 0.07 mg./kg., Block 3) was 743.1±151.1 cm. The Path length (AF64A-treated rats; icv AF64A, AF151 0.07 mg./kg., Block 4) was 574.9±101.1 cm, the Path length (AF64A-treated rats; icv AF64A, AF151 0.07 mg./kg., Reversal) was 602.9± 97.9 cm and the Path length (AF64A-treated rats; icv AF64A, AF151 0.3 mg./kg., Block 1) was 862.3±151.0 cm. It also gave a Path length (AF64A-treated rats; icv AF64A, AF151 0.3 mg./kg., Block 2) of 843.5±197.5 cm, a Path length (AF64A-treated rats; icv AF64A, AF151 0.3 mg./kg., Block 3) of 539.9±146.2 cm and a Path length (AF64A-treated rats; icv AF64A, AF151 0.3 mg./kg., Block 4) of 297.9± 60.4 cm. The Path length (AF64A-treated rats; icv AF64A, AF151 0.3 mg./kg., Reversal) was 390.5± 77.0 cm, the Path length (AF64A-treated rats; icv AF64A, AF151 1.0 mg./kg., Block 1) was 656.6±107.6 cm and the Path length (AF64A-treated rats; icv AF64A, AF151 1.0 mg./kg., Block 2) was 802.7±111.1 cm. It also gave a Path length (AF64A-treated rats; icv AF64A, AF151 1.0 mg./kg., Block 3) of 795.0±131.3 cm, a Path length (AF64A-treated rats; icv AF64A, AF151 1.0 mg./kg., Block 4) of 434.4± 33.0 cm and a Path length (AF64A-treated rats; icv AF64A, AF151 1.0 mg./kg., Reversal) of 606.0± 60.0 cm. The Path length (AF64A-treated rats; icv Sal., AF151 0.07 mg./kg., Block 1) was 490.6± 74.0 cm, the Path length (AF64A-treated rats; icv Sal., AF151 0.07 mg./kg., Block 2) was 562.9± 92.7 cm and the Path length (AF64A-treated rats; icv Sal., AF151 0.07 mg./kg., Block 3) was 429.2± 76.5 cm. The Path length (AF64A-treated rats; icv Sal., AF151 0.07 mg./kg., Block 4) was 278.0± 44.0 cm, the Path length (AF64A-treated rats; icv Sal., AF151 0.07 mg./kg., Reversal) was 453.9± 76.0 cm and the Path length (AF64A-treated rats; icv Sal., AF151 0.3 mg./kg., Block 1) was 517.8± 45.3 cm. The Path length (AF64A-treated rats; icv Sal., AF151 0.3 mg./kg., Block 2) was 365.1± 58.4 cm, the Path length (AF64A-treated rats; icv Sal., AF151 0.3 mg./kg., Block 3) was 424.6± 92.3 cm and the Path length (AF64A-treated rats; icv Sal., AF151 0.3 mg./kg., Block 4) was 346.7± 64.4 cm. For the same compound, the Path length (AF64A-treated rats; icv Sal., AF151 0.3 mg./kg., Reversal) was 306.8± 43.3 cm, the Path length (AF64A-treated rats; icv Sal., AF151 1.0 mg./kg., Block 1) was 607.4± 90.6 cm and the Path length (AF64A-treated rats; icv Sal., AF151 1.0 mg./kg., Block 2) was 440.2± 90.1 cm. For the same compound, the Path length (AF64A-treated rats; icv Sal., AF151 1.0 mg./kg., Block 3) was 408.1± 97.1 cm, the Path length (AF64A-treated rats; icv Sal., AF151 1.0 mg./kg., Block 4) was 233.8± 30.6 cm and the Path length (AF64A-treated rats; icv Sal., AF151 1.0 mg./kg., Reversal) was 450.0± 93.5 cm.
